Experimental data from US7109193B2, “Tricyclic diazepines tocolytic oxytocin receptor antagonists” (Wyeth, priority 2001, dated 2006).

molecular target: T1, human oxytocin receptor (Homo sapiens, UniProt P30559); experiment: Oxytocin binding in Chinese Hamster Ovary cell membranes expressing human oxytocin receptors; conditions: 100 nM, CHO cell membranes, [3H]oxytocin, values without parentheses
T1 construct: host or cells: CHO cells (pcDNA3.1 vector)
T1 sequence (P30559 1-389): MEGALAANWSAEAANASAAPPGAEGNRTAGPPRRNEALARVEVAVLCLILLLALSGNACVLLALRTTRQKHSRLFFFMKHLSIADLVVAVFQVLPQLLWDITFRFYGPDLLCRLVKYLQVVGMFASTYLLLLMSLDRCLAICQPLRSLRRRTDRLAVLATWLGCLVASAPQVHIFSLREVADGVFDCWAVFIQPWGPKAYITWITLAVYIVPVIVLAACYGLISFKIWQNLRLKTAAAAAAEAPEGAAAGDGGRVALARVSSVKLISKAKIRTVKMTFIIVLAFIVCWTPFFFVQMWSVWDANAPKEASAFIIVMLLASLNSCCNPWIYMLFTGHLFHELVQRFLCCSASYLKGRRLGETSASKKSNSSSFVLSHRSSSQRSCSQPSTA

Row | Compound | OT % inhibition @ 100% nM [%]
1 | COc1cccc(-c2ccc(C(=O)N3Cc4ccc(C(=O)NCCC5CCCN5C)n4Cc4ccccc43)cc2C)c1 (centres unmarked) [Example 164, 10-[(3′-Methoxy-2-methyl[1′1′-biphenyl]-4-yl)carbonyl]-N-[2-(1-methyl-2-pyrrolidinyl)ethyl]-10,11-dihydro-5H-pyrrolo[2,1-c][1,4]benzodiazepine-3-carboxamide] | 54
2 | COc1cccc(-c2ccc(C(=O)N3Cc4ccc(C(=O)N5CCN(CCN(C)C)CC5)n4Cc4ccccc43)cc2C)c1 [Example 199, {4-[2-(Dimethylamino)ethyl]-1-piperazinyl{}10-[(3′-methoxy-2-methyl[1,1′-biphenyl]-4-yl)carbonyl]-10,11-dihydro-5H-pyrrolo[2,1-c][1,4]benzodiazepin-3-yl}methanone] | 84
3 | COc1cccc(-c2cc(OC)c(C(=O)N3Cc4ccc(C(=O)N5CCN(CCN6CCOCC6)CC5)n4Cc4ccccc43)cc2Cl)c1 [Example 212, {10-[(6-Chloro-3,3′-dimethoxy[1,1′-biphenyl]-4-yl)carbonyl]-10,11-dihydro-5H-pyrrolo[2,1-c][1,4]benzodiazepin-3-yl}{4-[2-(4-morpholinyl)ethyl]-1-piperazinyi}methanone] | 95
4 | COc1ccccc1-c1ccc(C(=O)N2Cc3ccc(C(=O)N4CCC[C@H]4CN4CCCC4)n3Cc3ccccc32)cc1C [Example 259, {10-[(2′-Methoxy-2-methyl[1,1′-biphenyl]-4-yl)carbonyl]-10,11-dihydro-5H-pyrrolo[2,1-c][1,4]benzodiazepin-3-yl}[(2S)-2-(1-pyrrolidinylmethyl)pyrrolidinyl]methanone] | 97
5 | Cc1ccccc1-c1ccc(C(=O)N2Cc3ccc(C(=O)N4CCC[C@H]4CN4CCCC4)n3Cc3ccccc32)cc1C [Example 260, {10-[(2,2′-Dimethyl[1,1′-biphenyl]-4-yl)carbonyl]-10,11-dihydro-5H-pyrrolo[2,1-c][1,4]benzodiazepin-3-yl}[(2S)-2-(1-pyrrolidinylmethyl)pyrrolidinyl]methanone] | 102
6 | O=C(c1ccc(-c2cccc3ccccc23)cc1Cl)N1Cc2ccc(C(=O)N3CCC[C@H]3CN3CCCC3)n2Cc2ccccc21 [Example 261, {10-[2-Chloro-4-(1-naphthyl)benzoyl]-10,11-dihydro-5H-pyrrolo[2,1-c][1,4]benzodiazepin-3-yl}[(2S)-2-(1-pyrrolidinylmethyl)pyrrolidinyl]methanone] | 52
7 | COc1cc(C(=O)N2Cc3ccc(C(=O)N4CCC[C@H]4CN4CCCC4)n3Cc3ccccc32)ccc1-c1cccc2ccccc12 [Example 262, {10-[3-Methoxy-4-(1-naphthyl)benzoyl]-10,11-dihydro-5H-pyrrolo[2,1-c][1,4]benzodiazepin-3-yl}[(2S)-2-(1-pyrrolidinylmethyl)pyrrolidinyl]methanone] | 76
8 | Cc1ccccc1-c1ccc(C(=O)N2Cc3ccc(C(=O)N4CCC[C@H]4CN4CCCC4)n3Cc3ccccc32)cc1 [Example 264, {10-[(2′-Methyl[1,1′-biphenyl]-4-yl)carbonyl]-10,11-dihydro-5H-pyrrolo[2,1-c][1,4]benzodiazepin-3-yl}[(2S)-2-(1-pyrrolidinylmethyl)pyrrolidinyl]methanone] | 94
9 | COc1ccccc1-c1ccc(C(=O)N2Cc3ccc(C(=O)N4CCC[C@H]4CN4CCCC4)n3Cc3ccccc32)cc1 [Example 265, {10-[(2′-Methoxy[1,1′-biphenyl]-4-yl)carbonyl]-10,11-dihydro-5H-pyrrolo[2,1-c][1,4]benzodiazepin-3-yl}[(2S)-2-(1-pyrrolidinylmethyl)pyrrolidinyl]methanone] | 100
10 | COc1cc(C(=O)N2Cc3ccc(C(=O)N4CCC[C@H]4CN4CCCC4)n3Cc3ccccc32)ccc1-c1ccccc1C [Example 266, {10-[(2-Methoxy-2′-methyl[1,1′-biphenyl]-4-yl)carbonyl]-10,11-dihydro-5H-pyrrolo[2,1-c][1,4]benzodiazepin-3-yl}[(2S)-2-(1-pyrrolidinylmethyl)pyrrolidinyl]methanone] | 97
11 | COc1cc(-c2ccccc2C)c(Cl)cc1C(=O)N1Cc2ccc(C(=O)N3CCC[C@H]3CN3CCCC3)n2Cc2ccccc21 [Example 267, {10-[(6-Chloro-3-methoxy-2′-methyl[1,1′-biphenyl]-4-yl)carbonyl]-10,11-dihydro-5H-pyrrolo[2,1-c][1,4]benzodiazepin-3-yl}[(2S)-2-(1-pyrrolidinylmethyl)pyrrolidinyl]methanone] | 93
12 | COc1cccc(-c2cc(OC)c(C(=O)N3Cc4ccc(C(=O)N5CCC[C@H]5CN5CCCC5)n4Cc4ccccc43)cc2Cl)c1 [Example 268, {10-[(6-Chloro-3,3′-dimethoxy[1,1′-biphenyl]-4-yl)carbonyl]-10,11-dihydro-5H-pyrrolo[2,1-c][1,4]benzodiazepin-3-yl}[(2S)-2-(1-pyrrolidinylmethyl)pyrrolidinyl]methanone] | 90
13 | COc1ccccc1-c1ccc(C(=O)N2Cc3ccc(C(=O)N4CCC[C@H]4CN4CCCC4)n3Cc3ccccc32)cc1OC [Example 269, {10-[(2,2′-Dimethoxy[1,1′-biphenyl]-4-yl)carbonyl]-10,11-dihydro-5H-pyrrolo[2,1-c][1,4]benzodiazepin-3-yl}[(2S)-2-(1-pyrrolidinylmethyl)pyrrolidinyl]methanone] | 88
14 | COc1cccc(-c2ccc(C(=O)N3Cc4ccc(C(=O)N5CCC[C@H]5CN5CCCC5)n4Cc4ccccc43)cc2OC)c1 [Example 270, {10-[(2,3′-Dimethoxy[1,1′-biphenyl]-4-yl)carbonyl]-10,11-dihydro-5H-pyrrolo[2,1-c][1,4]benzodiazepin-3-yl}[(2S)-2-(1-pyrrolidinylmethyl)pyrrolidinyl]methanone] | 95
15 | Cc1ccccc1-c1ccc(C(=O)N2Cc3ccc(C(=O)N4CC[C@@H](N(C)C)C4)n3Cc3ccccc32)cc1C [Example 274, [(3R)-3-(Dimethylamino)pyrrolidinyl]{10-[(2,2′-dimethyl[1,1′-biphenyl]-4-yl)carbonyl]-10,11-dihydro-5H-pyrrolo[2,1-c][1,4]benzodiazepin-3-yl}methanone] | 103
16 | COc1cccc(-c2cc(OC)c(C(=O)N3Cc4ccc(C(=O)N5CC[C@@H](N(C)C)C5)n4Cc4ccccc43)cc2Cl)c1 [Example 275, {10-[(6-Chloro-3,3′-dimethoxy[1,1′-biphenyl]-4-yl)carbonyl]-10,11-dihydro-5H-pyrrolo[2,1-c][1,4]benzodiazepin-3-yl}[(3R)-3-(dimethylamino)pyrrolidinyl]methanone] | 89
17 | COc1cc(C(=O)N2Cc3ccc(C(=O)N4CC[C@@H](N(C)C)C4)n3Cc3ccccc32)ccc1-c1cccc2ccccc12 [Example 276, [(3R)-3-(Dimethylamino)pyrrolidinyl]{10-[3-methoxy-4-(1-naphthyl)benzoyl]-10,11-dihydro-5H-pyrrolo[2,1-c][1,4]benzodiazepin-3-yl}methanone] | 74
18 | CN(C)[C@@H]1CCN(C(=O)c2ccc3n2Cc2ccccc2N(C(=O)c2ccc(-c4cccc5ccccc45)cc2Cl)C3)C1 [Example 277, {10-[2-Chloro-4-(1-naphthyl)benzoyl]-10,11-dihydro-5H-pyrrolo[2,1-c][1,4]benzodiazepin-3-yl}[(3R)-3-(dimethylamino)pyrrolidinyl]methanone] | 41
19 | COc1ccccc1-c1ccc(C(=O)N2Cc3ccc(C(=O)N4CC[C@@H](N(C)C)C4)n3Cc3ccccc32)cc1 [Example 279, [(3R)-3-(Dimethylamino)pyrrolidinyl]{10-[(2′-methoxy[1,1′-biphenyl]-4-yl)carbonyl]-10,11-dihydro-5H-pyrrolo[2,1-c][1,4]benzodiazepin-3-yl}methanone] | 100
20 | Cc1ccccc1-c1ccc(C(=O)N2Cc3ccc(C(=O)N4CC[C@@H](N(C)C)C4)n3Cc3ccccc32)cc1 [Example 280, [(3R)-3-(Dimethylamino)pyrrolidinyl]{10-[(2′-methyl[1,1′-biphenyl]-4-yl)carbonyl]-10,11-dihydro-5H-pyrrolo[2,1-c][1,4]benzodiazepin-3-yl}methanone] | 95
21 | COc1cc(C(=O)N2Cc3ccc(C(=O)N4CC[C@@H](N(C)C)C4)n3Cc3ccccc32)ccc1-c1ccccc1C [Example 281, [(3R)-3-(Dimethylamino)pyrrolidinyl]{10-[(2-methoxy-2′-methyl[1,1′-biphenyl]-4-yl)carbonyl]-10,11-dihydro-5H-pyrrolo[2,1-c][1,4]benzodiazepin-3-yl}methanone] | 93
22 | COc1ccccc1-c1ccc(C(=O)N2Cc3ccc(C(=O)N4CC[C@@H](N(C)C)C4)n3Cc3ccccc32)cc1OC [Example 282, {10-[(2,2′-Dimethoxy[1,1′-biphenyl]-4-yl)carbonyl]-10,11-dihydro-5H-pyrrolo[2,1-c][1,4]benzodiazepin-3-yl][(3R)-3-(dimethylamino)pyrrolidinyl]methanone] | 84

same assay, conditions: 100 nM, CHO cell membranes, [3H]oxytocin, values without parentheses, read-out: OT % inhibition @ 100% nM

Row | Compound | inhibition at 0.1 µM [%]
23 | COc1cc(-c2ccccc2C)c(Cl)cc1C(=O)N1Cc2ccc(C(=O)NCCN3CCCCC3)n2Cc2ccccc21 [Example 155, 10-[(6-Chloro-3-methoxy-2′-methyl[1,1′-biphenyl]-4-yl)carbonyl]-N-[2-(1-piperidinyl)ethyl]-10,11-dihydro-5H-pyrrolo[2,1-c][1,4]benzodiazepine-3-carboxamide] | 56
